Patent US20240398805A1, “QUINAZOLINE DERIVED COMPOUNDS AS EGFR INHIBITORS AND THEIR USES THEREOF” (ACCUTAR BIOTECHNOLOGY INC., priority 2021, published 2024)

Experiments:
Format in all cases: cell-based
HCC827 cells = test: Cell growth inhibition (CellTiter-Glo, 3 days) in HCC827; details: Homo sapiens, 72 h, 3 days after administration
Outline: (§1)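 Growth inhibition was scored by CellTiter-Glo luminescence after 3-day compound exposure at various concentrations. Cells were plated at 5000/well the day before treatment: A431 in DMEM and HCC827 in RPMI, each with 10% FBS.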

[1] = test system: HCC827-SVD cells (human EGFR exon 20 insertion mutant D770_N771 insSVD); test: Cell growth inhibition (CellTiter-Glo, 3 days) in HCC827-SVD; details: 72 h, 3 days after administration
Outline: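 HCC827 cells carrying lentiviral codon-optimized EGFR D770_N771 insSVD, with endogenous EGFR knocked out by CRISPR (single clone), seeded at 5000 cells/well in RPMI with 10% FBS. Viability read by CellTiter-Glo luminescence.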

[2] = test system: HCC827-ASV cells (human EGFR exon 20 insertion mutant A769_D770insASV); test: Cell growth inhibition (CellTiter-Glo, 3 days) in HCC827-ASV; details: 72 h, 3 days after administration
Outline: (§2)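 HCC827 cells lentivirally transduced with codon-optimized ASV or YVMA insertion mutants were seeded at 5000 cells/well in RPMI with 10% FBS and incubated overnight. Compound was added at various concentrations from a 10× stock in medium, with 3 days' incubation. Viability read by CellTiter-Glo luminescence.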

[3] = test system: HCC827-YVMA cells (human ERBB2 exon20 insertion mutant A775_G776ins YVMA); test: Cell growth inhibition (CellTiter-Glo, 3 days) in HCC827-YVMA; details: 72 h, 3 days after administration
Outline: as §2

A431 cells = test: Cell growth inhibition (CellTiter-Glo, 3 days) in A431; details: Homo sapiens, A-431, 72 h, 3 days after administration
Outline: as §1

## C=CC(=O)N1CCC(Nc2cc3c(Nc4ccc(Oc5ccn(-c6ccc(N(C)C)nn6)n5)cc4F)ncnc3cc2OC)CC1 [Example 48, 1-(4-((4-((4-((1-(6-(dimethylamino)pyridazin-3-yl)-1H-pyrazol-3-yl)oxy)-2-fluorophenyl)amino)-7-methoxyquinazolin-6-yl)amino)piperidin-1-yl)prop-2-en-1-one]
HCC827 cells
  GI50: 60 to 100 nM
[1]
  GI50: 30 to 60 nM
[2]
  GI50: 30 to 60 nM
[3]
  GI50: 30 to 60 nM
A431 cells
  GI50: 60 to 100 nM

## C=CC(=O)N1CCC(Nc2cc3c(Nc4ccc(Oc5ccnc(N6CCN[C@@H](C)C6)c5)cc4F)ncnc3cc2OC)CC1 [Example 225, (S)-1-(4-((4-((2-fluoro-4-((2-(3-methylpiperazin-1-yl)pyridin-4-yl)oxy)phenyl)amino)-7-methoxyquinazolin-6-yl)amino)piperidin-1-yl)prop-2-en-1-one]
HCC827 cells
  GI50: ≥ 1000 nM
[1]
  GI50: 300 to 600 nM
[2]
  GI50: 300 to 600 nM
[3]
  GI50: 300 to 600 nM
A431 cells
  GI50: ≥ 1000 nM

## C=CC(=O)N1CCC(Nc2cc3c(Nc4ccc(Oc5ccnc(N6C[C@H](C)O[C@@H](C)C6)c5)cc4F)ncnc3cc2OC)CC1 [Example 105, 1-(4-((4-((4-((2-((2S,6S)-2,6-dimethylmorpholino)pyridin-4-yl)oxy)-2-fluorophenyl)amino)-7-methoxyquinazolin-6-yl)amino)piperidin-1-yl)prop-2-en-1-one]
HCC827 cells
  GI50: 300 to 600 nM
[1]
  GI50: < 30 nM
[2]
  GI50: < 30 nM
[3]
  GI50: < 30 nM
A431 cells
  GI50: ≥ 1000 nM

## C=CC(=O)N1CCC(Nc2cc3c(Nc4ccc(Oc5ccnc(N6CC(S(C)(=O)=O)C6)c5)cc4F)ncnc3cc2OC)CC1 [Example 143, 1-(4-((4-((2-fluoro-4-((2-(3-(methylsulfonyl)azetidin-1-yl)pyridin-4-yl)oxy)phenyl)amino)-7-methoxyquinazolin-6-yl)amino)piperidin-1-yl)prop-2-en-1-one]
HCC827 cells
  GI50: ≥ 1000 nM
[1]
  GI50: 300 to 600 nM
[2]
  GI50: 300 to 600 nM
[3]
  GI50: 300 to 600 nM
A431 cells
  GI50: ≥ 1000 nM

## C=CC(=O)N1CCC(Nc2cc3c(Nc4ccc(Oc5ccnc(N6CCC(C)(C)C6)c5)cc4F)ncnc3cc2OC)CC1 [Example 153, 1-(4-((4-((4-((2-(3,3-dimethylpyrrolidin-1-yl)pyridin-4-yl)oxy)-2-fluorophenyl)amino)-7-methoxyquinazolin-6-yl)amino)piperidin-1-yl)prop-2-en-1-one]
HCC827 cells
  GI50: < 30 nM
[1]
  GI50: < 30 nM
[2]
  GI50: < 30 nM
[3]
  GI50: 30 to 60 nM
A431 cells
  GI50: 300 to 600 nM

## C=CC(=O)N1CCC(Nc2cc3c(Nc4ccc(Oc5ccnc(N6CC(C(N)=O)C6)c5)cc4F)ncnc3cc2OC)CC1 [Example 144, 1-(4-(4-((6-((1-acryloylpiperidin-4-yl)amino)-7-methoxyquinazolin-4-yl)amino)-3-fluorophenoxy)pyridin-2-yl)azetidine-3-carboxamide]
HCC827 cells
  GI50: ≥ 1000 nM
[1]
  GI50: 600 to 1000 nM
[2]
  GI50: 600 to 1000 nM
[3]
  GI50: ≥ 1000 nM
A431 cells
  GI50: ≥ 1000 nM

## C=CC(=O)N1CCC(Nc2cc3c(Nc4ccc(Oc5ccnc(N6CCCOCC6)c5)cc4F)ncnc3cc2OC)CC1 [Example 106, 1-(4-((4-((4-((2-(1,4-oxazepan-4-yl)pyridin-4-yl)oxy)-2-fluorophenyl)amino)-7-methoxyquinazolin-6-yl)amino)piperidin-1-yl)prop-2-en-1-one]
HCC827 cells
  GI50: 100 to 300 nM
[1]
  GI50: < 30 nM
[2]
  GI50: < 30 nM
[3]
  GI50: < 30 nM
A431 cells
  GI50: ≥ 1000 nM

## C=CC(=O)N1CCC(Nc2cc3c(Nc4ccc(OCc5ccc(N6CCOCC6)cn5)cc4F)ncnc3cc2OC)CC1 [Example 107, 1-(4-((4-((2-fluoro-4-((5-morpholinopyridin-2-yl)methoxy)phenyl)amino)-7-methoxyquinazolin-6-yl)amino)piperidin-1-yl)prop-2-en-1-one]
HCC827 cells
  GI50: 100 to 300 nM
[1]
  GI50: 600 to 1000 nM
[2]
  GI50: 300 to 600 nM
[3]
  GI50: 300 to 600 nM
A431 cells
  GI50: 300 to 600 nM
